Among the data in ChEMBL document CHEMBL5380875, “Discovery of a Potent and Oral Available Complex I OXPHOS Inhibitor That Abrogates Tumor Growth and Circumvents MEKi Resistance” (J Med Chem, 2023) are inhibition and IC50 values, retold here.

For assay [1], the system named is NCI-H460. Kind of assay: Inhibition of mitochondrial complex I NADH-ubiquinone oxidoreductase in human NCI-H460 cells at 1 uM incubated for 12 hrs by seahorse XF96 metabolic flux analyzer relative to control. In kind it is cell-based.
Assay [2] relates to NCI-H460. Kind of assay: Inhibition of mitochondrial complex I NADH-ubiquinone oxidoreductase in human NCI-H460 cells assessed as reduction in NAD+/NADH ratio at 1 uM incubated for 12 hrs by WST-8 method relative to control. Format: cell-based. On the technique in general: Tetrazolium dyes change colour on reduction, which living cells bring about.
Another assay deals with NCI-H358. The experiment in a line: Antiproliferative activity against human NCI-H358 cells with low-OXPHOS assessed as reduction in cell viability incubated for 5 days by CellTiter 96 cell proliferation assay. In kind it is functional, cell-based. As to conditions: NCI-H358, 120 h.
Assay [3] has as its system NCI-H460. Kind of assay: Inhibition of mitochondrial complex IV in human NCI-H460 cells at 1 uM incubated for 12 hrs by seahorse XF96 metabolic flux analyzer relative to control. Format: cell-based.
Assay [4] has as its system NCI-H460. The experiment in a line: Inhibition of mitochondrial complex II in human NCI-H460 cells at 1 uM incubated for 12 hrs by seahorse XF96 metabolic flux analyzer relative to control. Format: cell-based.
The subject of assay [5] is NCI-H460. The experiment in a line: Antiproliferative activity against human NCI-H460 cells with high-OXPHOS assessed as reduction in cell viability incubated for 5 days by CellTiter 96 cell proliferation assay. In kind it is functional, cell-based. As to conditions: NCI-H460, 120 h.
The subject of assay [6] is NCI-H460. Kind of assay: Inhibition of mitochondrial complex III in human NCI-H460 cells at 1 uM incubated for 12 hrs by seahorse XF96 metabolic flux analyzer relative to control. In kind it is cell-based.

Structures are written as SMILES.

One may read the inhibition as the drop in the measured response relative to a control, in per cent. In the case of `Cc1c(C(=O)N2CCN(Cc3ccccc3OCC(F)(F)F)CC2)nnn1Cc1ccc(C(=O)Nc2ccc(C(F)(F)F)cc2)nc1`, the inhibition with NCI-H460 [1] amounted to 6.7%.
On to `Cc1nnn(Cc2ccc(C(=O)Nc3ccc(OC(F)(F)F)cc3)nc2)c1C(=O)N1CCN(Cc2ccc(OCC(F)(F)F)cc2)CC1`, for which the inhibition in the assay with NCI-H460 [1] is 20.4%.
Still for that read-out and setting: with `Cc1c(C(=O)N2CCN(S(C)(=O)=O)CC2)nnn1Cc1ccc(C(=O)Nc2ccc(C(F)(F)F)cc2)nc1` the figure was 20.4%; with `COc1ccc(NC(=O)c2ccc(Cn3nnc(C(=O)N4CCN(Cc5ccc(OCC(F)(F)F)cc5)CC4)c3C)cn2)cc1`, 49.2%.
What is called IC50 is the midpoint of a concentration-inhibition curve. Take `Cc1c(C(=O)N2CCN(Cc3ccc(OCC(F)(F)F)cc3)CC2)nnn1Cc1ccc(C(=O)Nc2ccc3ccccc3c2)nc1`: the inhibition is 52.3% in the assay on NCI-H460 [1]; 57.9% in the assay on NCI-H460 [2]; 3.9% with NCI-H460 [3]; 7% with NCI-H460 [4]; 11% with NCI-H460 [6]. For the same compound, the results for the 50% inhibitory concentration (IC50) in the assay with NCI-H358 and in the assay on NCI-H460 [5] were > 1000 nM and 25.6 nM, respectively.
Turning to `O=C(Nc1ccc(C(F)(F)F)cc1)c1ccc(Cn2nnc(C(=O)N3CCN(Cc4ccc(OCC(F)(F)F)cc4)CC3)c2-c2ccccc2)cn1`, in the assay with NCI-H460 [1], the inhibition is 12.6%.
The same measure, in the same setting: for `Cc1nnn(Cc2ccc(C(=O)Nc3ccc(C(F)(F)F)cc3)nc2)c1C(=O)N1CCN(Cc2ccc(OCC(F)(F)F)cc2)CC1` the value was 15.7%.
On to `Cc1c(C(=O)N2CCN(Cc3ccc(C(C)(C)C)cc3)CC2)nnn1Cc1ccc(C(=O)Nc2ccc(C(F)(F)F)cc2)nc1`, for which the inhibition in the assay with NCI-H460 [1] is 50.5%; in the assay on NCI-H460 [2], 73.2%; in the assay with NCI-H460 [3], 12.2%; in the assay on NCI-H460 [4], -0.9%; with NCI-H460 [6], 17.8%. The half-maximal inhibitory concentration (IC50) is > 1000 nM in the assay with NCI-H358 and 7.8 nM in the assay on NCI-H460 [5].
Regarding `Cc1c(C(=O)N2CCN(Cc3ccc(OCC(F)(F)F)cc3)CC2)nnn1Cc1ccc(C(=O)Nc2ccc(C(C)(C)C)cc2)nc1`, in the assay with NCI-H460 [1], the inhibition was found to be 45%.
The same measure, in the same setting: with `Cc1ccc(NC(=O)c2ccc(Cn3nnc(C(=O)N4CCN(Cc5ccc(OCC(F)(F)F)cc5)CC4)c3C)cn2)cc1` the figure was 47.9%.
For the compound `Cc1c(C(=O)N2CCN(Cc3ccc(Cl)cc3)CC2)nnn1Cc1ccc(C(=O)Nc2ccc(C(F)(F)F)cc2)nc1`, the inhibition was determined as 20.4% in the assay on NCI-H460 [1], 8.9% in the assay with NCI-H460 [3], 6.8% in the assay with NCI-H460 [4] and 3.5% in the assay on NCI-H460 [6].
For `Cc1c(C(=O)N2CCN(C)CC2)nnn1Cc1ccc(C(=O)Nc2ccc(C(F)(F)F)cc2)nc1`, the values for the inhibition in the assay with NCI-H460 [1] and in the assay on NCI-H460 [4] were 11.5% and -1.2%, respectively.
For the compound `CCc1c(C(=O)N2CCN(Cc3ccc(OCC(F)(F)F)cc3)CC2)nnn1Cc1ccc(C(=O)Nc2ccc(C(F)(F)F)cc2)nc1`, the inhibition with NCI-H460 [1] came out at 42.6%.
Still for that read-out and setting: for `Cc1c(C(=O)N2CCN(Cc3ccc(OCC(F)(F)F)cc3)CC2)nnn1Cc1ccc(C(=O)Nc2ccccc2C(F)(F)F)nc1` the value was 36.3%; for `Cc1nnn(Cc2ccc(C(=O)Nc3ccc(F)cc3)nc2)c1C(=O)N1CCN(Cc2ccc(OCC(F)(F)F)cc2)CC1`, 9%.
For the compound `Cc1c(C(=O)N2CCN(Cc3ccc(OCC(F)(F)F)cc3)CC2)nnn1Cc1ccc(C(=O)NC2CCOCC2)nc1`, in the assay with NCI-H460 [1], the inhibition turned out to be 10.5%.
On to `Cc1c(C(=O)N2CCN(Cc3ccc(OCC(F)(F)F)cc3)CC2)nnn1Cc1ccc(C(=O)Nc2ccc(OC(F)(F)F)cc2)nc1`, for which the inhibition with NCI-H460 [1] is 58.4%; in the assay with NCI-H460 [2], 74.2%; in the assay on NCI-H460 [3], -6.7%; in the assay with NCI-H460 [4], 8.8%; with NCI-H460 [6], 9%. The IC50 was 856 nM with NCI-H358 and 6.3 nM in the assay on NCI-H460 [5].
For the compound `Cc1c(C(=O)N2CCN(Cc3ccc(OCC(F)(F)F)cc3)CC2)nnn1Cc1ccc(C(=O)Nc2ccc(F)cc2)nc1`, the inhibition with NCI-H460 [1] was determined as 54.2%; with NCI-H460 [2] it was 72.5%; with NCI-H460 [3], 26.6%; in the assay on NCI-H460 [4] it was 9.4%; in the assay with NCI-H460 [6], 2.6%. The IC50 with NCI-H358 is > 1000 nM; in the assay on NCI-H460 [5], 11.7 nM.
Take `Cc1c(C(=O)N2CCN(Cc3ccccc3)CC2)nnn1Cc1ccc(C(=O)Nc2ccc(C(F)(F)F)cc2)nc1`: the inhibition in the assay with NCI-H460 [1] stood at 10.4%.
As to `Cc1c(C(=O)N2CCN(Cc3ccc(C(C)C)cc3)CC2)nnn1Cc1ccc(C(=O)Nc2ccc(C(F)(F)F)cc2)nc1`, in the assay on NCI-H460 [1], the inhibition is 36.7%.
On the same count and under the same terms, for `CCNC(=O)c1ccc(Cn2nnc(C(=O)N3CCN(Cc4ccc(OCC(F)(F)F)cc4)CC3)c2C)cn1` the value was 36.3%.
`Cc1c(C(=O)N2CCN(Cc3cccc(OCC(F)(F)F)c3)CC2)nnn1Cc1ccc(C(=O)Nc2ccc(C(F)(F)F)cc2)nc1`: in the assay on NCI-H460 [1], the inhibition was 49.9%.
Same read-out and setting: with `CCN1CCN(C(=O)c2nnn(Cc3ccc(C(=O)Nc4ccc(C(F)(F)F)cc4)nc3)c2C)CC1` the figure was -4.1%.
Turning to `O=C(Nc1ccc(C(F)(F)F)cc1)c1ccc(Cn2cc(C(=O)N3CCN(Cc4ccc(OCC(F)(F)F)cc4)CC3)nn2)cn1`, the inhibition is 52% in the assay with NCI-H460 [1]; 65.7% in the assay on NCI-H460 [2]; -2% in the assay on NCI-H460 [3]; 7.4% in the assay on NCI-H460 [4]; 26% in the assay on NCI-H460 [6]. Also, the IC50 with NCI-H358 came out at 588 nM; in the assay on NCI-H460 [5], 10.6 nM.
For the compound `Cc1nnn(Cc2ccc(C(=O)Nc3ccc(Br)cc3)nc2)c1C(=O)N1CCN(Cc2ccc(OCC(F)(F)F)cc2)CC1`, the inhibition in the assay with NCI-H460 [1] worked out at 7.7%.
In the case of `Cc1c(C(=O)N2CCN(Cc3ccc(OCC(F)(F)F)cc3)CC2)nnn1Cc1ccc(C(=O)Nc2ccc(Cl)cc2)nc1`, the inhibition in the assay with NCI-H460 [1] was determined as 60.1%; in the assay with NCI-H460 [2] it was 72.5%; in the assay on NCI-H460 [3] it was 26%; in the assay with NCI-H460 [4] it was 13.5%; in the assay with NCI-H460 [6] it was 30.3%. The results for the IC50 in the assay with NCI-H358 and in the assay with NCI-H460 [5] were > 1000 nM and 7.6 nM, respectively.
Take `Cc1c(C(=O)N2CCN(Cc3ccc(OCC(F)(F)F)cc3)CC2)nnn1Cc1ccc(C(=O)Nc2ccc(Br)cc2)nc1`: the inhibition in the assay on NCI-H460 [1] was determined as 66%; with NCI-H460 [2], 62.6%; in the assay with NCI-H460 [3], 20%; with NCI-H460 [4], 22.5%; with NCI-H460 [6], 33.7%. The IC50 amounted to 450 nM with NCI-H358 and 5.5 nM in the assay with NCI-H460 [5].
Take `Cc1c(C(=O)N2CCN(C(=O)c3ccc(OC(F)(F)F)cc3)CC2)nnn1Cc1ccc(C(=O)Nc2ccc(C(F)(F)F)cc2)nc1`: the inhibition with NCI-H460 [1] was 43.8%.
Still for that read-out and setting: for `Cc1ccc(CN2CCN(C(=O)c3nnn(Cc4ccc(C(=O)Nc5ccc(C(F)(F)F)cc5)nc4)c3C)CC2)cc1` the value was 38.1%; for `Cc1c(C(=O)N2CCN(Cc3ccc(OC(F)(F)F)cc3)CC2)nnn1Cc1ccc(C(=O)Nc2ccc(C(F)(F)F)cc2)nc1`, 50.5%.
In the case of `O=C(Nc1ccc(C(F)(F)F)cc1)c1ccc(Cn2nnc(C(=O)N3CCN(Cc4ccc(OCC(F)(F)F)cc4)CC3)c2C(F)(F)F)cn1`, the inhibition was 59.3% in the assay with NCI-H460 [1]; 85.1% with NCI-H460 [2]; 1.6% in the assay with NCI-H460 [3]; 4.7% with NCI-H460 [4]; 12.1% in the assay with NCI-H460 [6]. Besides, the IC50 worked out at 605 nM with NCI-H358 and 3.8 nM in the assay on NCI-H460 [5].
For `Cc1c(C(=O)N2CCN(Cc3ccc(OCC(F)(F)F)cc3)CC2)nnn1Cc1ccc(C(=O)NCC(C)C)nc1`, in the assay with NCI-H460 [1], the inhibition was 5.6%.
